Measured values reported in patent US12178791B2, “Haloallylamine sulfone derivative inhibitors of lysyl oxidases and uses thereof” (Syntara Limited, priority 2018, dated 2024).
Structures can show the parent of a compound that is named as a salt.

Assays:
Assay type in all cases: biochemical
[1] = target: Bovine LOX (Bos taurus (Bovine), UniProt P33072); experiment: LOX inhibition, Amplex Red oxidation assay; conditions: 30 min preincubation at 37 °C, putrescine substrate
Source text: Lysyl oxidase (LOX) is an extracellular copper dependent enzyme which oxidizes peptidyl lysine and hydroxylysine residues in collagen and lysine residues in elastin to produce peptidyl alpha-aminoadipic-delta-semialdehydes. […] There are five LOX family members; these are LOX, LOXL1, LOXL2, LOXL3 and LOXL4. LOX and LOXL family members can be acquired as recombinant active proteins from commercial sources, or extracted from animal tissues like bovine aorta, tendons, pig skin; or prepared from cell cultures. The inhibitory effects of the compounds of the present invention were tested against the given LOX-LOXL preparation using a method based on the detection of hydrogen peroxide with an Amplex Red oxidation assay (Zhou et al. A stable nonfluorescent derivative of resorufin for the fluorometric determination of trace hydrogen peroxide: applications in detecting the activity of phagocyte NADPH oxidase and other oxidases. Anal. Biochem. 1997; 253, 162-168). The assay was developed using either 384 or 96 well format. Briefly, in a standard black, clear bottom 384 well plate assay 25 μL of a dilution of any of the isoenzymes and orthologues in 1.2 M urea, 50 mM sodium borate buffer (pH 8.2) were added into each well in the presence of 1 μM mofegiline and 0.5 mM pargyline (to inhibit SSAO and MAO-B and MAO-A, respectively; not necessary if the enzyme is from a recombinant or purified form). […] Twenty five μL of a reaction mixture containing twice the KM concentration of putrescine (Sigma Aldrich, e.g. 20 mM for LOX, or 10 mM for LOXL2 and LOXL3), 120 μM Amplex Red (Sigma Aldrich) and 1.5 U/mL horseradish peroxidase (Sigma Aldrich) prepared in 1.2 M urea, 50 mM sodium borate buffer (pH 8.2) were then added to the corresponding wells. The above volumes were doubled in the case of 96 wells plate. The fluorescence (RFU) was read every 2.5 min for 30 min at […] 37° C., excitation 565 nm and emission 590 (Optima; BMG labtech). The slope of the kinetics for each well was calculated using MARS data analysis software (BMG labtech) and this value was used to deduce the IC50 value (Dotmatics).

[2] = target: T1, LOXL2 (Homo sapiens (Human), UniProt Q9Y4K0); experiment: LOXL2 inhibition, Amplex Red oxidation assay; conditions: 30 min preincubation at 37 °C, putrescine substrate
T1 sequence (Q9Y4K0 26-774): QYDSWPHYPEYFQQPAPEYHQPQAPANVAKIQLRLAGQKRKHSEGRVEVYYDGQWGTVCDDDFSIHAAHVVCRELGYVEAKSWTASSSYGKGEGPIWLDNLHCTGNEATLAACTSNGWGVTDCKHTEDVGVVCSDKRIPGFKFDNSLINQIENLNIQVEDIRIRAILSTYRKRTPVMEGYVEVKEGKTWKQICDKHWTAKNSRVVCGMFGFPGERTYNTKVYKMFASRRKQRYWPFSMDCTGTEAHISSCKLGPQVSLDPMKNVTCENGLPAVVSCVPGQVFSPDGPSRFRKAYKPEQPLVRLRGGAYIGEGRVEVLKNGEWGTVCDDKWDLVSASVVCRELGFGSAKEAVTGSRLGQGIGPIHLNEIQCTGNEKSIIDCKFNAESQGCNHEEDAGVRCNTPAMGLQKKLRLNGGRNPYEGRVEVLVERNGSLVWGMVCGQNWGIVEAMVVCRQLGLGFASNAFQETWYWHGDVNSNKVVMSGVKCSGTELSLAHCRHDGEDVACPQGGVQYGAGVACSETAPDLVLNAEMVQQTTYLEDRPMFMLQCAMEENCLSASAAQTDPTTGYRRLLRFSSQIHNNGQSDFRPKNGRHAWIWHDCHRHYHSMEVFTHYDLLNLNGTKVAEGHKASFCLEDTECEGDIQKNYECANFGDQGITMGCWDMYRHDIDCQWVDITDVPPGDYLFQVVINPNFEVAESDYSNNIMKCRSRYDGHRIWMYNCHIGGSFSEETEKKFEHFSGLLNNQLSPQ
Source text: Lysyl oxidase (LOX) is an extracellular copper dependent enzyme which oxidizes peptidyl lysine and hydroxylysine residues in collagen and lysine residues in elastin to produce peptidyl alpha-aminoadipic-delta-semialdehydes. […] There are five LOX family members; these are LOX, LOXL1, LOXL2, LOXL3 and LOXL4. LOX and LOXL family members can be acquired as recombinant active proteins from commercial sources, or extracted from animal tissues like bovine aorta, tendons, pig skin; or prepared from cell cultures. The inhibitory effects of the compounds of the present invention were tested against the given LOX-LOXL preparation using a method based on the detection of hydrogen peroxide with an Amplex Red oxidation assay (Zhou et al. A stable nonfluorescent derivative of resorufin for the fluorometric determination of trace hydrogen peroxide: applications in detecting the activity of phagocyte NADPH oxidase and other oxidases. Anal. Biochem. 1997; 253, 162-168). The assay was developed using either 384 or 96 well format. Briefly, in a standard black, clear bottom 384 well plate assay 25 μL of a dilution of any of the isoenzymes and orthologues in 1.2 M urea, 50 mM sodium borate buffer (pH 8.2) were added into each well in the presence of 1 μM mofegiline and 0.5 mM pargyline (to inhibit SSAO and MAO-B and MAO-A, respectively; not necessary if the enzyme is from a recombinant or purified form). Test compounds were dissolved in DMSO and tested in a Concentration Response Curve (CRC) with 11 data points, typically in the micromolar or nanomolar range after incubation with the enzyme for 30 min at 37° C. Twenty five μL of a reaction mixture containing twice the KM concentration of putrescine (Sigma Aldrich, e.g. 20 mM for LOX, or 10 mM for LOXL2 and LOXL3), 120 μM Amplex Red (Sigma Aldrich) and 1.5 U/mL horseradish peroxidase (Sigma Aldrich) prepared in 1.2 M urea, 50 mM sodium borate buffer (pH 8.2) were then added to the corresponding wells. The above volumes were doubled in the case of 96 wells plate. The fluorescence (RFU) was read every 2.5 min for 30 min at […] 37° C., excitation 565 nm and emission 590 (Optima; BMG labtech). The slope of the kinetics for each well was calculated using MARS data analysis software (BMG labtech) and this value was used to deduce the IC50 value (Dotmatics).

[3] = target: T1, LOXL2; experiment: Jump dilution experiment, sustained inhibition of LOXL2; conditions: jump dilution after 40 min at 37 °C with 10× or 30× IC50; vs non-inhibited controls;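 note: 30× IC50 used only where needed so inhibitor exceeds enzyme concentration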
Description: (§1) Jump Dilution experiment: The assay was developed using a 96 well format and the starting enzyme concentration was set 100 times higher than for the inhibition studies. […] After the incubation, the mixture was diluted 50× in assay buffer, followed by a further 2× dilution in Amplex Red-horseradish peroxidase-putrescine reaction mix (same as per the inhibition studies) prior to the fluorescent measurement. Results were expressed in % recovery of the signal after a specified time by comparison with non-inhibited controls.

[4] = target: Recombinant human MAO-B (Homo sapiens (Human), UniProt P27338); experiment: Inhibition of human recombinant MAO-B; conditions: benzylamine 100 μM
Chain of Recombinant human MAO-B (P27338 whole entry): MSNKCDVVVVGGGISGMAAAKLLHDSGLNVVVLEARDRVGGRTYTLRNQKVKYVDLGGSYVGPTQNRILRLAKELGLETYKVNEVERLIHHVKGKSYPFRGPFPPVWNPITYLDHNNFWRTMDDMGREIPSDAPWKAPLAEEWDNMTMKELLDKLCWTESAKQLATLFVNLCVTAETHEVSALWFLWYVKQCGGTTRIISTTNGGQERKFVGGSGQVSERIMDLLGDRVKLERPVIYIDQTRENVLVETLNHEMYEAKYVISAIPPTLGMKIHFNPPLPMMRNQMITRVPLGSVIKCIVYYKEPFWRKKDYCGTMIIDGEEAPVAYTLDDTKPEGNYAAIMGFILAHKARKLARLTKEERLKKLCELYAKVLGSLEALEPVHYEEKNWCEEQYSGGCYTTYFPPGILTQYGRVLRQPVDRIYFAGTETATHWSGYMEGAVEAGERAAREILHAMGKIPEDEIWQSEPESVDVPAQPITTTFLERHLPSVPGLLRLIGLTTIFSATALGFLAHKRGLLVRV
Description: The specificity of the compounds of this invention was tested by determining their ability to inhibit MAO-B activities in vitro. Recombinant human MAO-B (0.06 mg/mL; Sigma Aldrich) was used as source of MAO-B enzyme activities. The assay was performed in a similar way as for human SSAO/VAP-1 (Example 28) except, the substrate benzylamine was used at 100 μM.

[5] = target: LOXL1 (Homo sapiens (Human), UniProt Q08397); experiment: Jump dilution experiment, sustained inhibition of LOXL1; conditions: jump dilution after 40 min at 37 °C with 10× or 30× IC50; vs non-inhibited controls;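 note: 30× IC50 used only where needed so inhibitor exceeds enzyme concentration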
Chain of LOXL1 (Q08397 96-574, species assumed): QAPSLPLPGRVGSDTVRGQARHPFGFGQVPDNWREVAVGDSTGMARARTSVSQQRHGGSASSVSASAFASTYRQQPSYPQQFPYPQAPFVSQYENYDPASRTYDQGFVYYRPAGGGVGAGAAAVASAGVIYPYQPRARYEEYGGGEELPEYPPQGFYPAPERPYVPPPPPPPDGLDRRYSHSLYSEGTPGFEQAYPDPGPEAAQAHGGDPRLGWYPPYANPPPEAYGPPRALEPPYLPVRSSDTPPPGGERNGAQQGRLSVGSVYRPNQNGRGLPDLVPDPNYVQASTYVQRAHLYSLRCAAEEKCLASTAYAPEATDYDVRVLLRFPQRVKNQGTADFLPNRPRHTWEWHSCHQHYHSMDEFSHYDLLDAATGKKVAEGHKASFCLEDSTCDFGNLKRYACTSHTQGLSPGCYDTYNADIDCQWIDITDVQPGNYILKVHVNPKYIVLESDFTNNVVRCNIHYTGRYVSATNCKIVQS
Description: as §1

[6] = target: Human recombinant SSAO/VAP-1 (Homo sapiens (Human), UniProt Q16853); experiment: Inhibition of human recombinant SSAO/VAP-1; conditions: 30 min preincubation at 37 °C, benzylamine 600 μM; read-out: SSAO/VAP-1 Activity IC50
Chain of Human recombinant SSAO/VAP-1 (Q16853 34-763): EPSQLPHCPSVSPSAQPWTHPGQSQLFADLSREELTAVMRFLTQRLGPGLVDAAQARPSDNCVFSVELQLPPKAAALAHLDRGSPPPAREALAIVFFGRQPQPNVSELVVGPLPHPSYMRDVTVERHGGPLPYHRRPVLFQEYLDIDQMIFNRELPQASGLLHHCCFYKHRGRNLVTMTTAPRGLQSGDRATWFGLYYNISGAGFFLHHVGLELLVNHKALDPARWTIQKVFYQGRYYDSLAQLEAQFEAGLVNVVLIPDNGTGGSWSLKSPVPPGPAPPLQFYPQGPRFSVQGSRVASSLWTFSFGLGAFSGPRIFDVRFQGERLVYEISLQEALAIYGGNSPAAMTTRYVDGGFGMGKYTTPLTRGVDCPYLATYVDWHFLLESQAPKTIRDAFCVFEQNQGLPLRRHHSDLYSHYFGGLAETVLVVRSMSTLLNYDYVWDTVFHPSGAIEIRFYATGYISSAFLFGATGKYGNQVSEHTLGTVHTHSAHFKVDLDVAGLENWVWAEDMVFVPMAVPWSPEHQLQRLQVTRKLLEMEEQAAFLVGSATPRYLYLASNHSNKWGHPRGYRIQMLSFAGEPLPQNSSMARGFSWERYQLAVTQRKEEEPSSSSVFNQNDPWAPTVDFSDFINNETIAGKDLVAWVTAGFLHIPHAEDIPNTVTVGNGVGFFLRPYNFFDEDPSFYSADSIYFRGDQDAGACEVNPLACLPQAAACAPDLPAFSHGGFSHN
Description: Human recombinant SSAO/VAP-1 amine oxidase activity was determined using the coupled colorimetric method as described for monoamine oxidase, copper-containing amine oxidases and related enzymes (Holt A. and Palcic M., A peroxidase-coupled continuous absorbance plate-reader assay for flavin monoamine oxidases, copper-containing amine oxidases and related enzymes. Nat Protoc 2006; 1: 2498-2505). Briefly, a cloned cDNA template corresponding to residues 34-763 of human SSAO/VAP-1, and incorporating a mouse Ig kappa (κ) signal sequence, N-terminal flag epitope tag and tobacco etch virus (TEV) cleavage site, was assembled in a mammalian expression vector (pLO-CMV) by Geneart AG. This vector containing human SSAO/VAP-1 residues was transfected into CHO-Kl glycosylation mutant cell line, Lec 8. A clone stably expressing human SSAO/VAP-1 was isolated and cultured in large scale. Active human SSAO/VAP-1 was purified and recovered using immunoaffinity chromatography. This was used as the source for SSAO/VAP-1 activity. A high-throughput colorimetric assay was developed using either 96 or 384 well format. Briefly, in a standard 96 well plate assay 50 μL of purified human SSAO/VAP-1 (0.25 μg/mL) in 0.1 M sodium phosphate buffer (pH 7.4) was added into each well. Test compounds were dissolved in DMSO and tested in a Concentration Response Curve (CRC) with 4-11 data points, typically in the micromolar or nanomolar range after incubation with human SSAO/VAP-1 for 30 min at 37° C. After 30 min incubation, 50 μL of the reaction mixture containing 600 μM benzylamine (Sigma Aldrich), 120 μM Amplex Red (Sigma Aldrich) and 1.5 U/mL horseradish peroxidase (Sigma Aldrich) prepared in 0.1 M sodium phosphate buffer (pH 7.4) were added to the corresponding well. The fluorescence unit (RFU) was read every 2.5 min for 30 min at 37° C. excitation 565 nm and emission 590 (Optima; BMG labtech). The slope of the kinetics for each well was calculated using MARS data analysis software (BMG labtech) and this value was used to deduce the IC50 value (Dotmatics).

Chain of Bovine LOX (P33072 170-418): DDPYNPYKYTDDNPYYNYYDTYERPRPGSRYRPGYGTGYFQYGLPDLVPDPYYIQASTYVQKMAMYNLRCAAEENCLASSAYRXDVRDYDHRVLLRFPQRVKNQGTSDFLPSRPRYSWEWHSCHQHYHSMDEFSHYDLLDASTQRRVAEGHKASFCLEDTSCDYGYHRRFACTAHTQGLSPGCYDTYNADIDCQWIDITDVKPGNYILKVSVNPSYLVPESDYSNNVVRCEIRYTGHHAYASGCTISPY

| SMILES | IC50 [1] | IC50 [2] | LOXL2 - Recovery of activity. (%) [3] | IC50 [4] | LOXL1 - Recovery of activity. (%) [5] | IC50 [6] |
| --- | --- | --- | --- | --- | --- | --- |
| CN(C)S(=O)(=O)c1cccc(Oc2ccccc2S(=O)(=O)C/C(F)=C/CN)c1 [Compound 18, (Z)-3-(2-(4-amino-2-fluorobut-2-enylsulfonyl)phenoxy)-N,N-dimethylbenzenesulfonamide hydrochloride] | < 1 µM | < 1 µM | 6.9% | – | – | – |
| CN(C)S(=O)(=O)c1ccc(Oc2cccc(S(=O)(=O)C/C(F)=C/CN)c2)cc1 [Compound 16, (Z)-4-(3-(4-amino-2-fluorobut-2-enylsulfonyl)phenoxy)-N,N-dimethylbenzenesulfonamide hydrochloride] | < 1 µM | < 1 µM | 14.4% | – | – | – |
| NC/C=C(\F)CS(=O)(=O)c1ccccc1C(=O)NC12CC3CC(CC(C3)C1)C2 [Compound 12, N-(adamantan-1-yl)-2-(((Z)-4-amino-2-fluorobut-2-en-1-yl)sulfonyl)benzamide hydrochloride] | < 10 µM | < 1 µM | 9.3% | > 30 µM | 2.6% | > 30 µM |
| NC/C=C(\F)CS(=O)(=O)c1cccc(C(=O)NC23CC4CC(CC(C4)C2)C3)c1 [Compound 13, N-(adamantan-1-yl)-3-(((Z)-4-amino-2-fluorobut-2-en-1-yl)sulfonyl)benzamide hydrochloride] | < 10 µM | < 10 µM | 8.9% | < 10 µM | 3.5% | > 30 µM |
| NC/C=C(\F)CS(=O)(=O)c1ccc(C(=O)NC23CC4CC(CC(C4)C2)C3)cc1 [Compound 4, N-(adamantan-1-yl)-4-(((Z)-4-amino-2-fluorobut-2-en-1-yl)sulfonyl)benzamide hydrochloride] | < 10 µM | < 10 µM | 21.2% | < 10 µM | 16.7% | > 30 µM |
| CN(C)S(=O)(=O)c1ccc(COc2ccc(S(=O)(=O)C/C(F)=C/CN)cc2)cc1 [Compound 10, (Z)-4-((4-((4-amino-2-fluorobut-2-en-1-yl)sulfonyl)phenoxy)methyl)-N,N-dimethylbenzenesulfonamide hydrochloride] | < 10 µM | < 10 µM | 15.2% | > 30 µM | – | > 30 µM |
| CC(C)N(C(C)C)S(=O)(=O)c1ccc(NC(=O)c2ccccc2S(=O)(=O)C/C(F)=C/CN)cc1 [Compound 15, (Z)-2-((4-amino-2-fluorobut-2-en-1-yl)sulfonyl)-N-(4-(N,N-diisopropylsulfamoyl)phenyl)benzamide hydrochloride] | < 10 µM | < 1 µM | – | > 30 µM | 26.1% | > 30 µM |
| CN(C)S(=O)(=O)c1ccc(COc2cccc(S(=O)(=O)C/C(F)=C/CN)c2)cc1 [Compound 9, (Z)-4-((3-((4-amino-2-fluorobut-2-en-1-yl)sulfonyl)phenoxy)methyl)-N,N-dimethylbenzenesulfonamide hydrochloride] | < 1 µM | < 1 µM | 15.1% | < 10 µM | 4.4% | > 30 µM |
| CN(C)S(=O)(=O)c1ccc(Oc2ccccc2S(=O)(=O)C/C(F)=C/CN)cc1 [Compound 6, (Z)-4-(2-((4-amino-2-fluorobut-2-en-1-yl)sulfonyl)phenoxy)-N,N-dimethylbenzenesulfonamide hydrochloride] | < 10 µM | < 1 µM | 10.4% | > 30 µM | 2.5% | > 30 µM |
| CC(C)N(C(C)C)S(=O)(=O)c1ccc(COc2ccccc2S(=O)(=O)C/C(F)=C/CN)cc1 [Compound 11, (Z)-4-((2-((4-amino-2-fluorobut-2-en-1-yl)sulfonyl)phenoxy)methyl)-N,N-diisopropylbenzenesulfonamide hydrochloride] | < 1 µM | < 1 µM | – | > 30 µM | 10.2% | > 30 µM |
| CN(C)S(=O)(=O)c1cccc(Oc2cccc(S(=O)(=O)C/C(F)=C/CN)c2)c1 [Compound 17, (Z)-3-(3-(4-amino-2-fluorobut-2-enylsulfonyl)phenoxy)-N,N-dimethylbenzenesulfonamide hydrochloride] | < 10 µM | < 1 µM | 5.3% | – | – | – |
